Experimental data: article PMC9505734, “Design, Synthesis, and Evaluation of a Set of Carboxylic Acid and Phosphate Prodrugs Derived from HBV Capsid Protein Allosteric Modulator NVR 3-778” (Molecules, 2022)
Converted amounts (≈) assume the structure as drawn. Counter-ions that a name gives are not always drawn. Like-named read-outs stand apart in the source and are kept apart here.

How the values were obtained:
[1] = Whole blood stability at 37 °C; format: in vitro ADME; conditions: rat whole blood, 2 µM; for Whole Blood (37 °C) Residual: after 2 h
Method: (§1) In order to verify the stability of prodrug in vitro, the stability of NVR 3-778 and prodrug N6 in plasma at 4 °C and whole blood at 37 °C was tested by the LC-MS/MS and characterization of their stability by peak area. […] A total of 1 mL of rat plasma was placed in ice water at 4 °C and 1 mL of rat whole blood was placed in a water bath at 37 °C for use, respectively. DMSO solution with compound concentration of 1 mM was prepared, and then 10 µL compound solution was added to 90 μL 45% methanol aqueous solution to obtain a quantitative solution with a concentration of 100 µM. A 2 µL compound solution was added to 98 µL 4 °C plasma and 37 °C whole blood, and three portions were prepared to reach the final concentration of 2 µM, respectively. After incubation for two hours, 400 µL termination solution was added. The samples were centrifuged at 4000 rpm for 10 min, and the supernatant was extracted. A total of 100 µL supernatant was mixed with 200 µL ultrapure water and fully shaken for 10 min. The absorption peak area (A) of the sample to be tested was determined by HPLC.

[2] = system: HBV replication in Hep38.7-Tet cells; assay: In vitro anti-HBV assay: inhibition of HBV replication (HBV DNA in culture supernatant, real-time PCR); format: cell-based, Hepatitis B virus; conditions: for EC50: Hepatitis B virus, 144 h, 6 days treatment, read-out: EC50: the concentration of 50% inhibition for HBV DNA in Hep38.7-Tet cells supernatant
Method: (§2) The target compounds N5-N8 were evaluated for their antiviral potency against HBV replication, as well as cytotoxicity in Hep38.7-Tet cells, which reproduces HBV replication from a chromosome-integrated HBV transgene under depletion of tetracycline from the medium. The 50% effective concentration (EC50) for anti-HBV activity, 50% cytotoxic concentration (CC50), and selectivity index (SI) calculated by CC50/EC50 ratio are shown in Table 1.
Hep38.7-Tet cells were cultured with DMEM/F-12/GlutaMAX supplemented with 10% fetal bovine serum, and 10 mM HEPES, 200 unit/mL penicillin, 200 µg/mL streptomycin, 5 µg/mL insulin, and 400 ng/mL tetracycline were added at 37 °C in 5% CO2. Tetracycline was removed when inducing HBV replication. Three days after seeding the cells, the cells were treated with or without compounds for 6 days and the culture supernatants were recovered to quantify HBV DNA using the primers 5′-[…]-3′, 5′-[…]-3′, and a probe 5′-FAM-[…]-TAMRA-3′ by real-time fluorescence quantitative PCR, as described.

[3] = design: method as in PMID 35268440; conditions: pH = 2.0 ref 16; cited from earlier work
HepG2.2.15 cell line = conditions: read-out: EC50, antiviral activity; cited from earlier work
[4] = Pharmacokinetic experiment after oral administration in rats; format: in vivo, SD rats; conditions: for MRT last: read-out: MRT0-last
Method: In order to explore the metabolism and bioavailability of prodrug in vivo after oral administration, the main pharmacokinetic parameters were tested. After oral administration of N6 and NVR 3-778 to the two groups of rats, we detected their plasma concentration, respectively. […] The experimental results confirmed that N6 had longer half-life and lower maximum concentration in vivo than NVR 3-778. In addition, N6 was completely transformed into NVR 3-778 in vivo, and both had favorable bioavailability. Compared with NVR3-778, N6 can release drugs more slowly, which can improve the narrow therapeutic window of NVR3-778 to some extent.
Six male SD rats were randomly divided into two groups (administered with N6 and NVR 3-778, respectively). The rats were fasted for 12 h before administration and had free access to water. Animal feed was given 4 h after administration. Compounds N6 and NVR 3-778 were both administered orally at a dose of 10 mg/kg. The corresponding doses of compounds were dissolved in DMSO/PEG400/water (3%/60%/37%, V/V/V) mixed solution to prepare compound oral solutions, respectively, which were filtered through the […]. After intragastric administration, blood was obtained by jugular vein puncture (blood point: before administration and 0.25 h, 0.5 h, 1 h, 2 h, 4 h, 6 h, 10 h, and 24 h after administration). Then 0.25 mL whole blood was collected from each rat at each time point, adding EDTA-K2 for anticoagulation. After collection, the plasma was centrifuged within 1 h (centrifugal condition: 8000 rpm, 5 min, 8 °C). Plasma samples were stored in a refrigerator before analysis. After the experiment, all rats were executed according to the regulations of the Experimental Animal Ethics Committee.

[5] = Water solubility test in phosphate buffers (HPLC); format: physicochemical; conditions: for solubility at 1 h: aqueous buffer
Method: The compound was dissolved in DMSO to prepare the mother liquor with a concentration of 10 mg/mL, and then 10 µL mother liquor was added to 1 mL phosphate buffer with different pH (pH = 2.0, 7.0, and 7.4). The solution was oscillated for 2 h at 3000 rpm of the vortex oscillator, and the precipitation of compounds was observed visually. The standard curve can be established by increasing the concentration of mother liquor until turbidity appears. The peak area (A) of different concentrations (c) was determined by HPLC. The standard curve was established with the concentration and peak area as abscissa and ordinate, respectively, and the standard curve equation A = kc + b was calculated. The standard curve of NVR 3-778 concentration–peak area was established by measuring the peak area at five concentrations of 1000, 200, 40, 8.0, and 1.6 µg/mL. The standard curve equation was A = 35,268c + 80,359 with R^2 = 0.9999. By measuring the peak area at 4000 µg/mL, 1000 µg/mL, 200 µg/mL, 40 µg/mL, and 8.0 µg/mL, the standard curve of N6 concentration–peak area was established: A = 16,303c + 714,762, R^2 = 0.999. Since the solubility of N6 in phosphate buffer solution (pH = 7.0, 7.4) had exceeded the detector range, the saturated solution of N6 was diluted 10 times for testing. On this basis, the saturated solution (pH = 2.0, 7.0, and 7.4) of phosphate buffer at different pH values was prepared and fully oscillated for 1 h before filtration. Finally, the absorption peak area of the sample at different pH phosphate buffer (pH = 2.0, 7.0, and 7.4) was determined (measured twice). According to the standard curve equation, the corresponding concentration was calculated, which was the solubility of the compound.

Plasma stability at 4 °C = format: in vitro ADME; conditions: rat plasma, 2 µM; for Plasma (4 °C) Residual: after 2 h
Method: as §1

Hep38.7-Tet cells = assay: Cytotoxicity assay (WST, Cell Counting Kit-8); format: cell-based
Method: as §2
(§3) The WST assays were performed by using Cell Counting Kit-8 (CCK-8) (DOJINDO) according to the manufacturer’s protocol. CCK-8 solution was added to the cells, which were incubated at 37 °C for 15 min and the absorbance at 450 nm was measured.

[6] = Cytotoxicity assay (WST, Cell Counting Kit-8); format: cell-based; conditions: human, Hep38.7-Tet cells, WST method (CCK-8); read-out: CC50: the concentration that kills 50% of Hep38.7-Tet cells
Method: as §2, §3

[7] = male, SD, plasma, 10 mg/kg, analyte NVR 3-778 after oral NVR 3-778, rat
[8] = male, SD, analyte N6 in plasma after oral N6, 10 mg/kg (18.8 nmol/kg), rat

Compound	Whole Blood (37 °C) 0 h (peak area) [1]	Whole Blood (37 °C) 2 h (peak area) [1]	Whole Blood (37 °C) Residual [1]	SI: selectivity index, the ratio of CC50/EC50 [2]	EC50 [2]	solubility at 1 h ([5]; phosphate buffer pH = 2.0)	solubility at 1 h ([5]; phosphate buffer pH = 7.0)	solubility at 1 h ([5]; phosphate buffer pH = 7.4)	Plasma (4 °C) 0 h (peak area) (Plasma stability at 4 °C)	Plasma (4 °C) 2 h (peak area) (Plasma stability at 4 °C)	Plasma (4 °C) Residual (Plasma stability at 4 °C)	CC50 [6]	melting point	also measured
O=C(Nc1cc(F)c(F)c(F)c1)c1ccc(F)c(S(=O)(=O)N2CCC(O)CC2)c1 [NVR 3-778, 4-Fluoro-3-((4-hydroxypiperidin-1-yl)sulfonyl)-N-(3,4,5-trifluorophenyl)benzamide]	0.18 ± 0.016	0.16 ± 0.0026	91%	36	380 ± 47 nM	3.82 µg/mL (≈ 8.83 µM)	24 µg/mL (≈ 55.6 µM)	4.84 µg/mL (≈ 11.2 µM)	0.12 ± 0.0078	0.10 ± 0.0066	85%	12600 ± 210 nM	–	water solubility [3]: 3 µg/mL (≈ 6.94 µM); EC50 (HepG2.2.15 cell line): 400 nM; Tlast ([4]; analyte NVR 3-778 after oral NVR 3-778, 10 mg/kg (23.1 nmol/kg), rat): 10.0 h; AUC(0-inf) [4, 7]: 3940 ± 948 ng·h/mL; AUC(0-t) [4, 7]: 3890 ± 948 ng·h/mL; Cmax [4, 7]: 1160 ± 261 ng/mL; Tmax [4, 7]: 0.833 ± 0.289 h; MRT inf ([4]; male, SD, plasma, 10 mg/kg, analyte NVR 3-778 after oral NVR 3-778, rat, read-out: MRT0-inf): 2.78 ± 0.144 h; MRT last [4, 7]: 2.67 ± 0.106 h; half-life ([4]; male, SD, plasma, analyte NVR 3-778 after oral NVR 3-778, 10 mg/kg (23.1 nmol/kg), rat): 1.4 ± 0.25 h; CC50 (Hep38.7-Tet cells; WST method (CCK-8), read-out: CC50: the concentration that kills 50% of Hep38.7-Tet cells): 13600 ± 210 nM
O=C(Nc1cc(F)c(F)c(F)c1)c1ccc(F)c(S(=O)(=O)N2CCC(OP(=O)(O)O)CC2)c1 [N5, 1-((2-Fluoro-5-((3,4,5-trifluorophenyl)carbamoyl)phenyl)sulfonyl)piperidin-4-yl Dihydrogen Phosphate]	–	–	–	33	420 ± 69 nM	–	–	–	–	–	–	13700 ± 1450 nM	–	–
O=C(O)CCCCC(=O)OC1CCN(S(=O)(=O)c2cc(C(=O)Nc3cc(F)c(F)c(F)c3)ccc2F)CC1 [N8, 6-((1-((2-fluoro-5-((3,4,5-trifluorophenyl)carbamoyl)phenyl)sulfonyl)piperidin-4-yl)oxy)-6-oxohexanoic acid]	–	–	–	>731	350 ± 32 nM	–	–	–	–	–	–	> 256000 nM	132 to 134 °C	reduction of toxicity compared with NVR 3-778 (Hep38.7-Tet cells; CC50 in Hep38.7-Tet cells): at least 18 fold
O=C(O)CCCC(=O)OC1CCN(S(=O)(=O)c2cc(C(=O)Nc3cc(F)c(F)c(F)c3)ccc2F)CC1 [N7, 5-((1-((2-fluoro-5-((3,4,5-trifluorophenyl)carbamoyl)phenyl)sulfonyl)piperidin-4-yl)oxy)-5-oxopentanoic acid]	–	–	–	46	280 ± 24 nM	–	–	–	–	–	–	13000 ± 1740 nM	135 to 137 °C	–
O=C(Nc1cc(F)c(F)c(F)c1)c1ccc(F)c(S(=O)(=O)N2CCC(OP(=O)(O)O)CC2)c1 (as salt: phosphate) [N5, 1-((2-Fluoro-5-((3,4,5-trifluorophenyl)carbamoyl)phenyl)sulfonyl)piperidin-4-yl Dihydrogen Phosphate]	–	–	–	–	–	–	–	–	–	–	–	–	162 to 164 °C	–
O=C(O)CCC(=O)OC1CCN(S(=O)(=O)c2cc(C(=O)Nc3cc(F)c(F)c(F)c3)ccc2F)CC1 [N6, 4-((1-((2-fluoro-5-((3,4,5-trifluorophenyl)carbamoyl)phenyl)sulfonyl)piperidin-4-yl)oxy)-4-oxobutanoic acid]	0.65 ± 0.048	0.70 ± 0.026	108%	36	350 ± 48 nM	695 µg/mL (≈ 1310 µM)	7500 µg/mL (≈ 14100 µM)	4420 µg/mL (≈ 8290 µM)	0.88 ± 0.052	0.89 ± 0.016	101%	12600 ± 1050 nM	138 to 140 °C	Tlast ([4]; analyte N6 in plasma after oral N6, 10 mg/kg (18.8 nmol/kg), rat): 1.00 h; AUC(0-t) [4, 8]: 8.13 ± 1.5 ng·h/mL; Cmax [4, 8]: 14.7 ± 1.31 ng/mL; Tmax [4, 8]: 0.25 h; MRT last [4, 8]: 0.487 h; time for complete conversion of N6 into NVR 3-778 ([4]; rats, oral N6 10 mg/kg): ≤ 2 h; water solubility compared with NVR 3-778 ([5]; pH = 2): more than 180 times; water solubility compared with NVR 3-778 ([5]; pH = 7): > 310 times; water solubility compared with NVR 3-778 ([5]; pH = 7.4): > 900 times
